From US8283310B2, “Hepatitis C virus inhibitors” (priority 2008, dated 2012)

Legend:
[1] = tested on: HCV genotype 1a replicon (H77) in HUH-7 cells; assay: HCV replicon luciferase reporter assay, genotype 1a; format: cell-based; conditions: Hepatitis C virus, Huh-7, 72 h, read-out: 1a/1b EC50 (nM): 1a
Description: A stable HCV genotype 1a replicon cell line was generated with a similar genomic map as described above for the 1b replicon cell line. An additional adaptive substitution at position 1496 (proline to leucine) was also introduced (Lemm J A, Liu M, Rose R E, Fridell R, O′Boyle Ii D R, Colonno R, Gao M. Intervirology. 2005 48(2-3):183-91). The sequence of the H77 infectious clone (see above for details) was used to generate the sub-replicon which also contained the selectable marker G418 and the Renilla luciferase gene.
(§1) The HCV replicon luciferase assay was developed to monitor the inhibitory effects of compounds described in the disclosure on HCV viral replication. […] After 3 days incubation at 37° C., cells were analyzed for Renilla Luciferase activity using the EnduRen as substrate (Promega cat 4E6485). […] The plates were incubated for 2 hrs at 37° C. and then read immediately for 30 seconds on the Viewlux Imager (PerkinElmer) using a luminescence program. […] The fluorescence signal from each well was read, with an excitation wavelength at 525/10 nm and an emission wavelength of 598/10 nm, on the Viewlux Imager.
(§2) The percentage inhibition was calculated using the formula below:
(§3) [formula] The values were graphed and analyzed using XLfit to obtain the EC50 value.

[2] = molecular target: T1, HCV NS3/4A protease complex (Hepatitis C virus genotype 1a, UniProt P27958, C1454S/C1711G); assay: FRET peptide assay to monitor HCV NS3/4A proteolytic activity; format: biochemical; conditions: recombinant NS3/4A protease complex, RET S1 FRET peptide substrate; strain not given
T1 construct: DNA encoding the recombinant HCV NS3/4A protease complex (amino acids 1027 to 1711) for these strains; inferred from pET21b vector and Ni-NTA purification; made in house; host or cells: Escherichia coli BL21 (DE3), pET21b
T1 sequence (P27958 1027-1711 C1454S/C1711G, one chain of several): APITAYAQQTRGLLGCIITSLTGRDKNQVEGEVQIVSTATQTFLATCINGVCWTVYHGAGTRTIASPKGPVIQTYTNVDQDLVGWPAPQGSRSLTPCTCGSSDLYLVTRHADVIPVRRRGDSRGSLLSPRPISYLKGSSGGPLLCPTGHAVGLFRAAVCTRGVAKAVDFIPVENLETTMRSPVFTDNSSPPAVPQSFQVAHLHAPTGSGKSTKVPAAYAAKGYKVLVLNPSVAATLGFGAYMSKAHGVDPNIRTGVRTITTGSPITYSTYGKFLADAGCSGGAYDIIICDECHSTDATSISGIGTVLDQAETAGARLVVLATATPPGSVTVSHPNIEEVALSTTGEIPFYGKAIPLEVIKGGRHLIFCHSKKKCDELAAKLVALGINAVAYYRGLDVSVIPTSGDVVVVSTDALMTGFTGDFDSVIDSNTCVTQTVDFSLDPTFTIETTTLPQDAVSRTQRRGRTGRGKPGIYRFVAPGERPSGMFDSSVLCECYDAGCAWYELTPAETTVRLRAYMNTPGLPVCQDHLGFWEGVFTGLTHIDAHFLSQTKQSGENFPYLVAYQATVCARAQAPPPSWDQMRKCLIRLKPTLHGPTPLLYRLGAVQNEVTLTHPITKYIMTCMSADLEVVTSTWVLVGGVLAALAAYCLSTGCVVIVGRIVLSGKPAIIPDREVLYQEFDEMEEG
Description: HCV NS3 protease complexes, derived from the BMS strain, H77 strain or J4L65 strain, were generated, as described below. These purified recombinant proteins were generated for use in a homogeneous assay (see below) to provide an indication of how effective compounds of the present disclosure would be in inhibiting HCV NS3 proteolytic activity.
The H77 and J4L6S strains were used for production of recombinant NS3/4A protease complexes. DNA encoding the recombinant HCV NS3/4A protease complex (amino acids 1027 to 1711) for these strains was manipulated as described by P. Gallinari et al. (see Gallinari P, Paolini C, Brennan D, Nardi C, Steinkuhler C, De Francesco R. Biochemistry. 38(17):5620-32, (1999)). Briefly, a three-lysine solubilizing tail was added at the 3′-end of the NS4A coding region. The cysteine in the P1 position of the NS4A-NS4B cleavage site (amino acid 1711) was changed to a glycine to avoid the proteolytic cleavage of the lysine tag. Furthermore, a cysteine to serine mutation was introduced by PCR at amino acid position 1454 to prevent the autolytic cleavage in the NS3 helicase domain. […]

[3] = tested on: HCV strain 1b replicon in HUH-7 cells; assay: HCV replicon luciferase reporter assay, genotype 1b; format: cell-based; conditions: Hepatitis C virus, Huh-7, 72 h, read-out: 1a/1b EC50 (nM): 1b
Description: An HCV replicon whole cell system was established as described by Lohmann V, Korner F, Koch J, Herian U, Theilmann L, Bartenschlager R., Science 285(5424):110-3 (1999). This system enabled us to evaluate the effects of our HCV Protease compounds on HCV RNA replication. Briefly, using the HCV strain 1b sequence described in the Lohmann paper (Assession number: AJ238799), an HCV cDNA was synthesized by Operon Technologies, Inc. (Alameda, Calif.), and the full-length replicon was then assembled in plasmid pGem9zf(+) (Promega, Madison, Wis.) using standard molecular biology techniques. […]
as §1, §2, §3

| SMILES | EC50 [1] [nM] | IC50 [2] [nM] | EC50 [3] [nM] |
| --- | --- | --- | --- |
| CC(C)(C)OC(=O)N[C@H](C(=O)N1C[C@]2(c3ccc(-c4ccccc4)cc3)C[C@H]1C(=O)N[C@@]1(C[C@H]1C(F)F)C(=O)NS(=O)(=O)C1(CCCCC/C=C\CS2)CC1)C(C)(C)C [Compound 2] | 95 | 4 | 33 |
| CC(C)(C)OC(=O)N[C@H](C(=O)N1C[C@]2(c3ccc(-c4ccccc4)cc3)C[C@H]1C(=O)N[C@@]1(C[C@H]1C(F)F)C(=O)NS(=O)(=O)C1(CCCCC/C=C/CS2)CC1)C(C)(C)C [Compound 1] | 49 | 2 | 21 |
